Reference: patent publication US9309198B2, “N-[3-(2-carboxyethyl)phenyl]piperidin-1-ylacetamide derivatives and use thereof as activators of soluble guanylate cyclase” (Bayer Pharma Aktiengesellschaft, priority 2012, dated 2016)

molecular target: T1, recombinant guanylate cyclase reporter cell line (sGC, CHO reporter cell) (Rattus norvegicus, UniProt P20595); assay: Effect on a recombinant guanylate cyclase reporter cell line (CHO reporter cell); type: cell-based
T1 construct: expressed in transfected cells; host or cells: CHO reporter cell line
T1 sequence (P20595 1-619): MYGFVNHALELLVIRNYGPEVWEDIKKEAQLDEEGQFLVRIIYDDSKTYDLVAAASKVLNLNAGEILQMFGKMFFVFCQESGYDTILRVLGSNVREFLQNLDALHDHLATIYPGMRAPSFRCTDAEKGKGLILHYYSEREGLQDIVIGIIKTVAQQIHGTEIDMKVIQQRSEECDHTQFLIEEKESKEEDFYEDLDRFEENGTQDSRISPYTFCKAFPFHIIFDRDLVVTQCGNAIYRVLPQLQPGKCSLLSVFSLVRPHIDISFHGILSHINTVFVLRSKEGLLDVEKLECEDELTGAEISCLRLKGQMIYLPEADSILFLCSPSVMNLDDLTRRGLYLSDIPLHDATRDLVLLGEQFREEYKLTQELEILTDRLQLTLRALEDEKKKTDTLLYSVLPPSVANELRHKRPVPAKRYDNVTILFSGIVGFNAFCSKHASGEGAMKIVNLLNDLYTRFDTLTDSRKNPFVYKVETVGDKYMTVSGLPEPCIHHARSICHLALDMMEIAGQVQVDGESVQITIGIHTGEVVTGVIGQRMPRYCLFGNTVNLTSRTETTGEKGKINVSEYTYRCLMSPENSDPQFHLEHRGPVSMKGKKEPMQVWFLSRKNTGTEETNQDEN
T1 sequence (P19686 1-690 partner): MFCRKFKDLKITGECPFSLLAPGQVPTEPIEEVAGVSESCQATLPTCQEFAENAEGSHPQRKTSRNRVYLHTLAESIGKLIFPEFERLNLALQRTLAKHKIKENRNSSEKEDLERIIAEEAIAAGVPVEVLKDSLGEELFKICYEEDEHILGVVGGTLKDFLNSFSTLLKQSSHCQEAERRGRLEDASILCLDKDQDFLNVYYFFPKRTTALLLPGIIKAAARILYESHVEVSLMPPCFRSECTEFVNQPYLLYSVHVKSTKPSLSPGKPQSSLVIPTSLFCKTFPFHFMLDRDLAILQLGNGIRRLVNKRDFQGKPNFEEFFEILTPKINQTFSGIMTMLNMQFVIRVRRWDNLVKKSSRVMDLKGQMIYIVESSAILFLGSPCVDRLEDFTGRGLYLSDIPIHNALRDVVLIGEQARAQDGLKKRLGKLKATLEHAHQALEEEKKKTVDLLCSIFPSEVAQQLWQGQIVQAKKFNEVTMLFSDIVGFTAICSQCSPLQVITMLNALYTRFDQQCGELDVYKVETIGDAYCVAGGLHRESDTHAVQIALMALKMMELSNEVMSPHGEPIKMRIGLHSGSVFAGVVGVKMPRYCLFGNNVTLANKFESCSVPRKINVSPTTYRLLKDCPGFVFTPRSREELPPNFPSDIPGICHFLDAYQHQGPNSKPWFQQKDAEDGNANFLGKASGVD
Protocol: B-2. Effect on a Recombinant Guanylate Cyclase Reporter Cell Line The cellular activity of the compounds according to the invention is determined using a recombinant guanylate cyclase reporter cell line, as described in F. Wunder et al., Anal. Biochem. 339, 104-112 (2005).

| MEC (minimum effective concentration), sGC-activating activity in the CHO reporter cell in vitro | Structure (SMILES) |
| --- | --- |
| 10 nM | CCC1CCN(C(C(=O)Nc2cc(CCC(=O)O)ccc2F)C(C)C(F)(F)F)CC1 (single isomer, unassigned) [Example 9, 3-(3-{[2-(4-ethylpiperidin-1-yl)-4,4,4-trifluoro-3-methylbutanoyl]amino}-4-fluorophenyl)propanoic acid] |
| 10 nM | CC(C(C(=O)Nc1cc(CCC(=O)O)ccc1F)N1CCC2(CC1)CC2)C(F)(F)F (stereo not shown) [Example 15] |
| 30 nM | CCC1CCN(C(C(=O)Nc2cc(CCC(=O)O)ccc2Cl)C(C)C(F)(F)F)CC1 (stereo not shown) [Example 12] |
| 3 nM | C[C@H]([C@H](C(=O)Nc1cc(CCC(=O)O)ccc1Cl)N1CCC(C(F)(F)F)CC1)C(F)(F)F [Example 17] |
| 60 nM | CC1CCN(C(C(=O)Nc2cc(CCC(=O)O)ccc2F)C(C)C(F)(F)F)CC1 (single isomer, unassigned) [Example 6, 3-(4-fluoro-3-{[4,4,4-trifluoro-3-methyl-2-(4-methylpiperidin-1-yl)butanoyl]amino}phenyl)propanoic acid] |
| 200 nM | CC1CCN(C(C(=O)Nc2cc(CCC(=O)O)ccc2F)C(C)C(F)(F)F)CC1.O=C(O)C(F)(F)F (single isomer, unassigned; (+)) [Example 37, (+)-3-(4-Fluoro-3-{[4,4,4-trifluoro-3-methyl-2-(4-methylpiperidin-1-yl)butanoyl]amino}phenyl)propanoic acid trifluoroacetate] |
| 10 nM | C[C@H]([C@H](C(=O)Nc1cc([C@@H](C)CC(=O)O)ccc1Cl)N1CCC2(CC1)CC2)C(F)(F)F (single isomer, unassigned) [Example 50] |
| 30 nM | CC(C(C(=O)Nc1cc(CCC(=O)O)ccc1Cl)N1CCC(C(F)(F)F)CC1)C(F)(F)F (stereo not shown) [Example 14] |
| 60 nM | CC1CCN([C@@H](C(=O)Nc2cc(CCC(=O)O)ccc2F)[C@@H](C)C(F)(F)F)CC1 [Example 7] |
| 100 nM | CC1CCN([C@@H](C(=O)Nc2cc(C[C@@H](C)C(=O)O)ccc2Cl)[C@@H](C)C(F)(F)F)CC1 [Example 31] |
| 50 nM | C[C@H]([C@H](C(=O)Nc1cc(CCC(=O)O)ccc1F)N1CCC2(CC1)CC2)C(F)(F)F [Example 16] |
| 300 nM | C[C@H]([C@H](C(=O)Nc1cc(CCC(=O)O)ccc1F)N1CCC(c2ccccc2)CC1)C(F)(F)F [Example 22] |
| 3 nM | CC1CCN([C@@H](C(=O)Nc2cc([C@@H](C)CC(=O)O)ccc2Cl)[C@@H](C)C(F)(F)F)CC1 (single isomer, unassigned) [Example 49] |
| 3 nM | C[C@H]([C@H](C(=O)Nc1cc(CCC(=O)O)ccc1Cl)N1CCC2(CC1)CC2)C(F)(F)F [Example 19] |
| 300 nM | CC1CCN([C@H](C(=O)Nc2cc(CCC(=O)O)ccc2Cl)[C@H](C)C(F)(F)F)CC1 (single isomer, unassigned) [Example 42] |
| 30 nM | CC(C(C(=O)Nc1cc(CC2(C(=O)O)CC2)ccc1F)N1CCCCC1)C(F)(F)F (single isomer, unassigned; (+)) [Example 35, (+)-1-(4-Fluoro-3-{[4,4,4-trifluoro-3-methyl-2-(piperidin-1-yl)butanoyl]amino}benzyl)cyclopropanecarboxylic acid] |
